A short description of series [1]: Stability in PBS and artificial gastric and intestinal fluid (residual parent compound). Format: physicochemical. As to conditions: for Stability in PBS/saline (residual parent compound): initial 100 μM. On the procedure: The logD value (distribution coefficient) of the compound was determined by means of the shake flask method, measuring the distribution of the solute in octanol and phosphate-buffered saline (PBS, pH 7.4). The concentration of ZED1227 in the immiscible solvents was determined by HPLC (vide supra). The stability in PBS (pH 7.4 or acidified to pH 5.0), in artificial gastric, and intestinal fluid was calculated as the percentage of residual parent compound after incubation for 24 h at 37 °C, using an initial concentration of 100 μM.

Another series concerns the target T1, hFXIII-A2 (Homo sapiens, UniProt P00488).
T1 construct: purchased Zedira T027
T1 sequence (P00488 39-732 limits assumed): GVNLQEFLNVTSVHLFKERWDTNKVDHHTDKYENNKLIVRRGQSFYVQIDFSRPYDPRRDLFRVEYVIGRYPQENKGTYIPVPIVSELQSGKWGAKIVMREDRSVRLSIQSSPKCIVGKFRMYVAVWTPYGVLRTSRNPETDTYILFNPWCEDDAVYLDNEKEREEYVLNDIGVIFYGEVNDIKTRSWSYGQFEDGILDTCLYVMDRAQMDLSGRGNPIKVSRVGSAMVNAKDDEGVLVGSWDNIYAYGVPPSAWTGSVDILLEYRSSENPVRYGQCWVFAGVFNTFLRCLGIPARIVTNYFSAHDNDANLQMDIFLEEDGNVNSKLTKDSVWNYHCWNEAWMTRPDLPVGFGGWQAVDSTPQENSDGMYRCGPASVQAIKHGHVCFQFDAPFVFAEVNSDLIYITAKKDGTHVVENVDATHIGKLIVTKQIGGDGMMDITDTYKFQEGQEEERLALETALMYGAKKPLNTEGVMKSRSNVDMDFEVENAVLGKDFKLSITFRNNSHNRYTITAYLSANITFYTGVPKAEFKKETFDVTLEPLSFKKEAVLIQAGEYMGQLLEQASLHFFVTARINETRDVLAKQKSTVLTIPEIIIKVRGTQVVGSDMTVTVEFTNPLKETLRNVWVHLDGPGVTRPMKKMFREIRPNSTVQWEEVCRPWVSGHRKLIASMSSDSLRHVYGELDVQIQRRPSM
The series can be described thus: Fluorescent transamidation assay (DCC-assay), hFXIII-A2. The format is biochemical.

Another series has as its system Caco-2 cells. As to the kind of experiment: EZ4U viability assay, Caco-2. The format is cell-based. As to conditions: up to 1,000 μM, 48 h. On the procedure: Cytotoxicological analysis of ZED1227 was performed using Huh7 (human liver carcinoma, CLS Cell Lines Service GmbH, Eppelheim, Germany) and Caco-2 cells (human epithelial colorectal adenocarcinoma, Sigma Aldrich, Taufkirchen, Germany) with respect to the effect on proliferation and viability, according to the assay protocols provided by the manufacturers of the respective kits. The Cell Proliferation ELISA (BrdU, colorimetric) was purchased from Roche (Mannheim, Germany), whereas the Cell Proliferation and Cytotoxicity Assay EZ4U was purchased from Biomedica (Vienna, Austria). […]
The EZ4U assay (determination of viability) was performed by incubating the cells with ZED1227 working solution (1% DMSO in culture medium) up to a concentration of 1,000 μM for 48 h, followed by addition of a yellow tetrazolium reagent (not further specified) into the culture medium. The non-toxic tetrazolium salts were reduced to red-colored formazan which was quantified spectrophotometrically. […]

Structures are written as SMILES. pIC50: −log10 of the molar value. “Also recorded” adds a separate entry of the source. Some results are limits rather than exact numbers.

The pIC50 is −log10 of the IC50, conventionally taken in molar units. In the case of `CCC(CC)CNC(=O)Cn1cccc(NC(=O)[C@H](CC/C=C/C(=O)OC)NC(=O)c2cncn2C)c1=O` [ZED1227, (S,E)-Methyl 7-(1-(2-(2-ethylbutylamino)-2-oxoethyl)-2-oxo-1,2-dihydropyridin-3-ylamino)-6-(1-methyl-1H-imidazole-5-carboxamido)-7-oxohept-2-enoate], in series [1] (after 24 h, summary statement), the “Recovery at low pH and in simulated gastric and intestinal fluid” value is reported as > 80%. Moreover, the “Stability in PBS/saline (residual parent compound)” value in series [1] (pH 5.0, 24 h, 37 °C) amounted to 89%; in series [1] (pH 7.4, 24 h, 37 °C), 10%. In series [1] (simulated gastric fluid pH 1.2, 24 h, 37 °C), the “Stability in artificial gastric fluid (residual parent compound)” value is 95%. The “Stability in artificial intestinal fluid (residual parent compound)” value in series [1] (simulated intestinal fluid pH 6.5, 24 h, 37 °C) is 82%. The “Selectivity hFXIII-A2 versus hTG2” value on hFXIII-A2 (ratio of app. IC50 values) is >900 fold. Also, the pIC50 at hFXIII-A2 (recombinant, thrombin activated, transamidation assay, read-out: App. IC50 hFXIII-A2) is < 4.30. Further, the “Cytotoxicity: Viability, Caco-2 cells” value in the series on Caco-2 cells is on record as “not cytotoxic up to 1,000 μM; also recorded: no effect up to 1,000 μM no effect up to 1,000 μM no effect up to 1,000 μM no effect up to 1,000 μM”.

The values are drawn from publication PMC9139979, “Features of ZED1227: The First-In-Class Tissue Transglutaminase Inhibitor Undergoing Clinical Evaluation for the Treatment of Celiac Disease” (Cells, 2022).
